The structures appear in SMILES notation.

The values below come from patent US6780398B1, “Aqueous nasal formulation” (Glaxo Smithkline Kabushiki Kaisha, priority 1999, dated 2004).

The subject of this assay is Ps. cepacia. The experiment in a line: Challenge test of BANS against Ps. cepacia (preservative effectiveness). It is filed as cell-based, Pseudomonas cepacia (now known as Burkhoderia cepacia). The following applies: phenylethylalcohol together with benzalkonium chloride in the formulation; FIG. 7. The source says:
4) Challenge Test of BANS Against Ps. Cepacia
Formulations corresponding to BANS and the same formulation containing only 0.02% (w/w) benzalkonium chloride as preservative (i.e. no phenylethyl alcohol) and the same formulation containing only 0.275% (v/w) phenylethylalcohol as preservative (i.e. no benzalkonium chloride) were challenged with an innoculum of Ps cepacia.

Regarding `OCCc1ccccc1` [phenylethylalcohol, Phenylethyl alcohol], the “preservative properties by killing Pseudomonas cepacia” value is reported as “synergistic effect with benzalkonium chloride”.
